Among the test systems are 786-0 renal; A498 renal; ACHN renal; BT-549 breast; HOP-62 NSCLC; HS 578T breast; HT29 colon; MDA-N; RXF 393 renal; SF-295 CNS; SF-539 CNS.
Test in all cases: inhibition of tumour cell growth, NCI panel, 48 h

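How tested: cells in 96-well plates exposed to compound for 48 hours at five concentrations. TGI: concentration producing complete growth inhibition.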

Take `CC1=NN(c2nc(N)nc(/C(C#N)=C/c3cccn3-c3cc(Cl)cc(Cl)c3)n2)C(C)(C)C1`: the TGI was above 100 µM in the assay on 786-0 renal; above 100 µM in the assay on A498 renal; above 100 µM in the assay on ACHN renal; above 100 µM with BT-549 breast; 67.3 µM in the assay on HOP-62 NSCLC; above 100 µM with HS 578T breast. For the same molecule, the TGI with HT29 colon, with MDA-N, in the assay on RXF 393 renal, in the assay on SF-295 CNS and in the assay with SF-539 CNS was above 100 µM in each case.

Turning to `C=C(CO[Si](C)(C)C(C)(C)C)C(C)=O`, the TGI with 786-0 renal is 34.3 µM; in the assay on A498 renal, above 100 µM; with ACHN renal it was above 71.4 µM; with BT-549 breast it was 44 µM; in the assay with HOP-62 NSCLC, above 100 µM; in the assay on HS 578T breast, above 84.4 µM. The TGI in the assay with HT29 colon was 40.7 µM; in the assay with MDA-N, 32.3 µM; in the assay on RXF 393 renal, 29 µM; with SF-295 CNS, above 100 µM; in the assay with SF-539 CNS, above 62.2 µM.

For the molecule `CCOC(=O)c1c(N2CCCC2)ncn(Cc2ccccc2)c1=S`, the TGI with 786-0 renal, in the assay on A498 renal, with ACHN renal, in the assay on BT-549 breast, in the assay on HOP-62 NSCLC and with HS 578T breast was above 100 µM each time. Besides, the TGI in the assay with HT29 colon, with MDA-N, with RXF 393 renal, with SF-295 CNS and in the assay with SF-539 CNS was above 100 µM throughout.

Consider `CCCC(=O)NC(Nc1ccc(S(=O)(=O)Nc2nc(C)cc(C)n2)cc1)(C(F)(F)F)C(F)(F)F`, for which the TGI with 786-0 renal, with A498 renal, with ACHN renal, with BT-549 breast, in the assay on HOP-62 NSCLC and in the assay with HS 578T breast was above 100 µM throughout. In addition, the TGI in the assay on HT29 colon, in the assay with MDA-N, with RXF 393 renal, in the assay with SF-295 CNS and in the assay with SF-539 CNS was above 100 µM throughout.

Take `CC(=O)c1c(C(F)(F)F)n([O-])c2cc(Cl)c(Cl)cc2[n+]1=O`: the TGI in the assay with 786-0 renal turned out to be 0.38 µM; with A498 renal, 2.5 µM; with ACHN renal, 1.92 µM; with BT-549 breast, 0.8 µM; with HOP-62 NSCLC, 0.887 µM; in the assay with HS 578T breast it was 2.38 µM. Besides, the TGI with HT29 colon came to 2.54 µM; in the assay with MDA-N it was 2.41 µM; with RXF 393 renal it was 2.51 µM; with SF-295 CNS, 2.27 µM; in the assay on SF-539 CNS it was 2.46 µM.

With `CC(=O)Oc1c2oc3ccc(Cl)cc3c(=O)c2c(O)c2ccsc12`, the TGI in the assay on 786-0 renal, in the assay on A498 renal, with ACHN renal, with BT-549 breast, in the assay on HOP-62 NSCLC and in the assay on HS 578T breast was above 100 µM throughout. Moreover, the TGI in the assay with HT29 colon, with MDA-N, in the assay on RXF 393 renal, in the assay on SF-295 CNS and in the assay with SF-539 CNS was above 100 µM each time.

With `N#Cc1ccccc1-c1nc2c3c(c(N)ccc3n1)C(=O)c1ccccc1-2`, the TGI with 786-0 renal, in the assay with A498 renal, with ACHN renal, with BT-549 breast, in the assay with HOP-62 NSCLC and with HS 578T breast was above 100 µM in each case. Besides, the TGI in the assay on HT29 colon, with MDA-N, in the assay with RXF 393 renal, in the assay with SF-295 CNS and in the assay with SF-539 CNS was above 100 µM throughout.

For `COc1cc(C2c3cc4c(cc3OC(NNC(N)=O)C2C)OCO4)cc(OC)c1O` (stereo not drawn), the TGI with 786-0 renal was above 80.1 µM; in the assay on A498 renal it was 35.7 µM; with ACHN renal, above 100 µM; in the assay with BT-549 breast, above 100 µM; in the assay with HOP-62 NSCLC it was above 100 µM; with HS 578T breast it was above 100 µM. Besides, the TGI is above 56.8 µM in the assay with HT29 colon; 1.02 µM in the assay on MDA-N; above 20.9 µM with RXF 393 renal; above 85.7 µM in the assay with SF-295 CNS; 4.71 µM in the assay on SF-539 CNS.
